# According to US20060069132A1, “Azolecarboxamide herbicides” (priority 2004, published 2006):
# Where two headings read alike, the source gives them in different places.
# How the values were obtained:
# barnyardgrass = experiment: Test C flooded paddy test; type: in vivo, Echinochloa crus-galli; conditions: for Plant response rating, Barnyardgrass: visual rating after 12 to 14 days
# How it was run: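 Scoring by eye, 12–14 days post-treatment, greenhouse-held plants vs. controls; 0 no effect, 100 complete control. Sprayed at 1–4 leaves (2–18 cm); paddy barnyardgrass at 2 leaves, flooded.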
# Surinam grass = experiment: Test B pre-/postemergence herbicide test; type: in vivo, Urochloa decumbens
# How it was run: (§1)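 Plants compared with untreated controls 13–15 days post-treatment and given a visual 0–100 injury score. Applications: preemergence to seeds; postemergence at 1- to 4-leaf (2–18 cm); paddy species flooded, 2-leaf stage. Vehicle non-phytotoxic, surfactant included.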
# large crabgrass [1] = experiment: Test B pre-/postemergence herbicide test; type: in vivo, Digitaria sanguinalis; conditions: for Plant response rating (0 to 100 scale), Crabgrass, Large: 0 is no effect
# How it was run: as §1
# yellow nutsedge = experiment: Test C pre-/postemergence herbicide test; type: in vivo, Cyperus esculentus
# Description: (§2) Seeds of plant species selected from bermudagrass (Cynodon dactylon (L.) Pers.), Surinam grass (Urochloa decumbens (Staph) R. D. Webster, previously named Brachiaria decumbens Stapf), cocklebur (Xanthium strumarium L.), corn (Zea mays L.), large crabgrass (Digitaria sanguinalis (L.) Scop.), woolly cupgrass (Eriochloa villosa (Thunb.) Kunth), giant foxtail (Setaria faberi Herrm.), goosegrass (Eleusine indica (L.) Gaertn.), johnsongrass (Sorghum halepense (L.) Pers.), kochia (Kochia scoparia (L.) Schrad.), lambsquarters (Chenopodium album L.), morningglory (Ipomoea coccinea L.), eastern black nightshade (Solanum ptycanthum Dunal), yellow nutsedge (Cyperus esculentus L.), pigweed (Amaranthus retroflexus L.), common ragweed (Ambrosia elatior L.), soybean (Glycine max (L.) Merr.), common (oilseed) sunflower (Helianthus annuus L.) and velvetleaf (Abutilon theophrasti Medik.) were planted and treated preemergence with test chemicals formulated in a non-phytotoxic solvent mixture which included a surfactant.
# (§3) At the same time, plants selected from these crop and weed species and also winter barley (Hordeum vulgare L.), blackgrass (Alopecurus myosuroides Huds.), canarygrass (Phalaris minor Retz.), chickweed (Stellaria media (L.) Vill.), downy bromegrass (Bromus tectorum L.), green foxtail (Setaria viridis (L.) Beauv.), Italian ryegrass (Lolium multiflorum Lam.), wheat (Triticum aestivum L.), wild oat (Avenafatua L.) and windgrass (Apera spica-venti (L.) Beauv.) were treated with postemergence applications of some of the test chemicals formulated in the same manner. Plants ranged in height from 2 to 18 cm (1- to 4-leaf stage) for postemergence treatments. Plant species in the flooded paddy test consisted of rice (Oryza sativa), smallflower umbrella sedge (Cyperus difformis L.), ducksalad (Heteranthera limosa (Sw.) Willd.) and barnyardgrass (Echinochloa crus-galli (L.) Beauv.) grown to the 2-leaf stage for testing. Treated plants and controls were maintained in a greenhouse for 12 to 14 days, after which time all species were compared to controls and visually evaluated. Plant response ratings, summarized in Table C, are based on a scale of 0 to 100 where 0 is no effect and 100 is complete control. A dash (-) response means no test result.
# cocklebur = experiment: Test C pre-/postemergence herbicide test; type: in vivo, Xanthium strumarium
# Description: as §2, §3
# large crabgrass [2] = experiment: Test C pre-/postemergence herbicide test; type: in vivo, Digitaria sanguinalis
# Description: as §2, §3
# morningglory = experiment: Test C pre-/postemergence herbicide test; type: in vivo, Ipomoea coccinea; set-up: key to Plant response rating, Morningglory: 0 = no effect, 100 = complete control
# Description: as §2, §3
# johnsongrass = experiment: Test C pre-/postemergence herbicide test; type: in vivo, Sorghum halepense
# Description: as §2, §3
# [3] = 62 g ai/ha, scale 0 to 100 (0 no effect, 100 complete control)
# [4] = 500 g ai/ha, scale 0 to 100 (0 no effect, 100 complete control)
# [5] = Postemergence, 500 g ai/ha, visual rating after 13 to 15 days, scale 0 (no effect) to 100 (complete control)
# [6] = Preemergence, 500 g ai/ha, scale 0 to 100
# [7] = 125 g ai/ha, 0 is no effect, 100 is complete control, preemergence
# [8] = 125 g ai/ha, 100 is complete control, preemergence
# [9] = 125 g ai/ha, scale 0 to 100 (0 no effect, 100 complete control)
# [10] = 250 g ai/ha, scale of 0 to 100, 0 is no effect, 100 is complete control
# [11] = Postemergence, 500 g ai/ha, scale 0 (no effect) to 100 (complete control)
# [12] = postemergence, 125 g ai/ha, scale 0 to 100
# [13] = Postemergence, 250 g ai/ha, scale 0 to 100, 0 no effect, 100 complete control
# [14] = Postemergence, 500 g ai/ha, scale 0 to 100, 0 no effect, 100 complete control
# [15] = postemergence, 62 g ai/ha, scale 0 to 100
# [16] = 125 g ai/ha, visual rating, scale 0 (no effect) to 100 (complete control), postemergence
# [17] = 500 g ai/ha, visual rating, 0 = no effect, 100 = complete control, preemergence
# [18] = postemergence, 500 g ai/ha, scale 0 to 100, 0 is no effect, 100 is complete control
# [19] = 62 g ai/ha, preemergence, scale 0 to 100
# [20] = 250 g ai/ha, scale 0-100, preemergence
# [21] = 500 g ai/ha, scale 0 to 100 (0 no effect, 100 complete control), visual, 12 to 14 days, preemergence
structure (smiles),measurement,setting,value
CCn1nc(C(C)(C)C)cc1C(=O)Nc1cccc(C(=O)NCCF)c1 [Compound 45],Barnyardgrass plant response rating,barnyardgrass; [3],25
same,Barnyardgrass plant response rating,"barnyardgrass; 125 g ai/ha, scale of 0 to 100, 0 is no effect, 100 is complete control",30
same,"Plant response rating, Barnyardgrass","barnyardgrass; 250 g ai/ha, scale 0 to 100 (0 no effect, 100 complete control)",60
same,"Plant response rating, Barnyardgrass",barnyardgrass; [4],80
same,"Plant response rating, Surinam Grass",Surinam grass; [5],30
same,Surinam Grass plant response rating,Surinam grass; [6],50
same,"Plant response rating, Surinam Grass","Surinam grass; preemergence, 125 g ai/ha, 0 to 100 scale, 0 is no effect, 100 is complete control",20
same,"Crabgrass, Large plant response rating","large crabgrass [1]; Postemergence, 125 g ai/ha, scale 0 (no effect) to 100 (complete control)",30
same,"Plant response rating, Crabgrass, Large",large crabgrass [1]; [5],30
same,"Crabgrass, Large plant response rating",large crabgrass [1]; [6],90
"CCOC(=O)c1cccc(NC(=O)c2nn(C(C)(C)C)nc2CC)c1 [Compound 360, ethyl 3-[[[2-(1,1-dimethylethyl)-5-ethyl-2H-1,2,3-triazol-4-yl]carbonyl]amino]benzoate]","Plant response rating (0 to 100 scale), Surinam Grass",Surinam grass; [7],20
same,pest or weed control at 125 g/ha,"Surinam grass; Urochloa decumbens, post-emergence, 125 g ai/ha, visual rating, scale 0 (no effect) to 100 (complete control), read-out: Surinam Grass plant response rating",10%
same,pest or weed control at 500 g/ha,"Surinam grass; Urochloa decumbens, post-emergence, postemergence, 500 g ai/ha, scale 0 to 100, 0 is no effect, 100 is complete control, read-out: Surinam Grass plant response rating",30%
same,pest or weed control at 500 g/ha,"Surinam grass; Urochloa decumbens, pre-emergence, 500 g ai/ha, visual rating, 0 = no effect, 100 = complete control, read-out: Plant response rating, Surinam Grass",50%
same,"Plant response rating (0 to 100 scale), Crabgrass, Large",large crabgrass [1]; [8],40
same,pest or weed control at 125 g/ha,"large crabgrass [1]; Digitaria sanguinalis, post-emergence, 125 g ai/ha, visual rating, scale 0 (no effect) to 100 (complete control), read-out: Crabgrass, Large plant response rating",10%
same,pest or weed control at 500 g/ha,"large crabgrass [1]; Digitaria sanguinalis, post-emergence, postemergence, 500 g ai/ha, scale 0 to 100, 0 is no effect, 100 is complete control, read-out: Crabgrass, Large plant response rating",20%
same,pest or weed control at 500 g/ha,"large crabgrass [1]; Digitaria sanguinalis, pre-emergence, 500 g ai/ha, visual rating, 0 = no effect, 100 = complete control, read-out: Plant response rating, Crabgrass, Large",80%
CCn1nc(C(C)(C)C)cc1C(=O)Nc1cccc(OS(=O)(=O)CC)c1 [Compound 408],Barnyardgrass plant response rating,barnyardgrass; [3],20
same,Barnyardgrass plant response rating,barnyardgrass; [9],45
same,Barnyardgrass plant response rating,barnyardgrass; [10],60
same,"Plant response rating, Barnyardgrass",barnyardgrass; [4],70
same,"Plant response rating (0 to 100 scale), Surinam Grass",Surinam grass; [7],30
same,Surinam Grass plant response rating,Surinam grass; [11],30
same,Surinam Grass plant response rating,Surinam grass; [12],20
same,"Plant response rating (0 to 100 scale), Crabgrass, Large",large crabgrass [1]; [8],90
same,"Crabgrass, Large plant response rating",large crabgrass [1]; [11],50
same,"Crabgrass, Large plant response rating",large crabgrass [1]; [12],30
CCn1nc(C(C)(C)C)cc1C(=O)Nc1cc(OC(F)(F)F)ccc1F [Compound 338],"Plant response rating, Nutsedge, Yellow",yellow nutsedge; [13],0
same,"Plant response rating, Nutsedge, Yellow",yellow nutsedge; [14],0
same,"Plant response rating, Nutsedge, Yellow",yellow nutsedge; [12],0
same,"Plant response rating, Nutsedge, Yellow",yellow nutsedge; [15],0
same,"Plant response rating, Cocklebur",cocklebur; [13],5
same,"Plant response rating, Cocklebur",cocklebur; [14],5
same,"Plant response rating, Cocklebur",cocklebur; [12],0
same,"Plant response rating, Cocklebur",cocklebur; [15],0
same,"Plant response rating, Crabgrass, Large",large crabgrass [2]; [13],10
same,"Plant response rating, Crabgrass, Large",large crabgrass [2]; [14],15
same,"Plant response rating, Crabgrass, Large",large crabgrass [2]; [12],5
same,"Plant response rating, Crabgrass, Large",large crabgrass [2]; [15],0
same,"Plant response rating, Morningglory",morningglory; [13],40
same,"Plant response rating, Morningglory",morningglory; [14],50
same,"Plant response rating, Morningglory",morningglory; [12],0
same,"Plant response rating, Morningglory",morningglory; [15],0
same,"Plant response rating, Johnsongrass",johnsongrass; [13],0
same,"Plant response rating, Johnsongrass",johnsongrass; [14],0
same,"Plant response rating, Johnsongrass",johnsongrass; [12],0
same,"Plant response rating, Johnsongrass",johnsongrass; [15],0
same,"Plant response rating (0 to 100 scale), Surinam Grass",Surinam grass; [7],20
same,Surinam Grass plant response rating,Surinam grass; [16],20
same,"Plant response rating, Surinam Grass",Surinam grass; [17],60
same,Surinam Grass plant response rating,Surinam grass; [18],40
same,"Plant response rating (0 to 100 scale), Crabgrass, Large",large crabgrass [1]; [8],80
same,"Crabgrass, Large plant response rating",large crabgrass [1]; [16],20
same,"Plant response rating, Crabgrass, Large",large crabgrass [1]; [17],100
same,"Crabgrass, Large plant response rating",large crabgrass [1]; [18],60
CCN(C(C)=O)C(=O)c1ccc(F)c(NC(=O)c2cc(C(C)(C)C)nn2CC)c1 [Compound 413],Barnyardgrass plant response rating,barnyardgrass; [3],0
same,Barnyardgrass plant response rating,barnyardgrass; [9],25
same,Barnyardgrass plant response rating,barnyardgrass; [10],70
same,"Plant response rating, Barnyardgrass",barnyardgrass; [4],80
same,"Plant response rating (0 to 100 scale), Surinam Grass",Surinam grass; [7],10
same,Surinam Grass plant response rating,Surinam grass; [11],20
same,Surinam Grass plant response rating,Surinam grass; [12],20
same,"Plant response rating (0 to 100 scale), Crabgrass, Large",large crabgrass [1]; [8],20
same,"Crabgrass, Large plant response rating",large crabgrass [1]; [11],20
same,"Crabgrass, Large plant response rating",large crabgrass [1]; [12],10
CCc1nn(C(C)C)nc1C(=O)Nc1cccc(C(=O)N2CCCCC2)c1 [Compound 385],"Plant response rating, Nutsedge, Yellow",yellow nutsedge; [19],100
same,"Plant response rating (0 = no effect, 100 = complete control), Nutsedge, Yellow","yellow nutsedge; 125 g ai/ha, preemergence",100
same,"Plant response rating, Nutsedge, Yellow",yellow nutsedge; [20],100
same,"Plant response rating, Nutsedge, Yellow",yellow nutsedge; [21],100
same,"Plant response rating, Cocklebur",cocklebur; [19],0
same,"Plant response rating (0 = no effect, 100 = complete control), Cocklebur","cocklebur; 125 g ai/ha, preemergence",0
same,"Plant response rating, Cocklebur",cocklebur; [20],100
same,"Plant response rating, Cocklebur",cocklebur; [21],100
same,"Plant response rating, Crabgrass, Large",large crabgrass [2]; [19],90
same,"Plant response rating (0 = no effect, 100 = complete control), Crabgrass, Large","large crabgrass [2]; 125 g ai/ha, preemergence",95
same,"Plant response rating, Crabgrass, Large",large crabgrass [2]; [20],100
same,"Plant response rating, Crabgrass, Large",large crabgrass [2]; [21],100
same,Barnyardgrass plant response rating,barnyardgrass; [3],20
same,Barnyardgrass plant response rating,barnyardgrass; [9],55
same,Barnyardgrass plant response rating,barnyardgrass; [10],80
same,"Plant response rating, Barnyardgrass",barnyardgrass; [4],85
same,"Plant response rating, Morningglory",morningglory; [19],15
same,"Plant response rating, Morningglory",morningglory; [20],65
same,"Plant response rating, Morningglory",morningglory; [21],100
same,"Plant response rating, Johnsongrass",johnsongrass; [19],80
same,"Plant response rating (0 = no effect, 100 = complete control), Johnsongrass","johnsongrass; 125 g ai/ha, preemergence",95
same,"Plant response rating, Johnsongrass",johnsongrass; [20],100
same,"Plant response rating, Johnsongrass",johnsongrass; [21],100
same,"Plant response rating (0 to 100 scale), Surinam Grass",Surinam grass; [7],80
same,Surinam Grass plant response rating,Surinam grass; [16],0
same,Surinam Grass plant response rating,Surinam grass; [11],20
same,"Plant response rating (0 to 100 scale), Crabgrass, Large",large crabgrass [1]; [8],90
same,"Crabgrass, Large plant response rating",large crabgrass [1]; [16],0
same,"Crabgrass, Large plant response rating",large crabgrass [1]; [18],20
